Experimental data published in article PMC3846293 (Bioorganic & medicinal chemistry letters, 2013).
Marks after values point to notes of the source that are not given here.

Assays:
[1] = target: rat mGlu5 (Rattus norvegicus, UniProt P31424); assay: Calcium mobilization mGlu5 assay; assay type: cell-based; conditions: for mGlu5 pIC50 (± SEM) / IC50: HEK293A cells expressing rat mGlu5, EC80 glutamate; for mGlu5 pIC50 (± SEM): average of n ≥ 3; for IC50: read-out: mGlu5 IC50
[2] = system: panel of 68 clinically relevant GPCRs, ion channels, kinases, and transporters; assay: Radioligand binding assay panel; conditions: 10 μM compound; significant = more than 50% inhibition of radioligand binding
[3] = system: marble burying; assay: Mouse marble burying model of anxiety; conditions: IP dosing, 15 minute pretreatment; all doses greater than or equal to 3 mg/kg; n = 8 per dose; P < 0.001 vs. vehicle
[4] = prior PK studies in rats; cited from earlier work
[5] = system: marble burying; conditions: mice; ref 7a,d; cited from earlier work

Sequence of rat mGlu5 (P31424 21-1203): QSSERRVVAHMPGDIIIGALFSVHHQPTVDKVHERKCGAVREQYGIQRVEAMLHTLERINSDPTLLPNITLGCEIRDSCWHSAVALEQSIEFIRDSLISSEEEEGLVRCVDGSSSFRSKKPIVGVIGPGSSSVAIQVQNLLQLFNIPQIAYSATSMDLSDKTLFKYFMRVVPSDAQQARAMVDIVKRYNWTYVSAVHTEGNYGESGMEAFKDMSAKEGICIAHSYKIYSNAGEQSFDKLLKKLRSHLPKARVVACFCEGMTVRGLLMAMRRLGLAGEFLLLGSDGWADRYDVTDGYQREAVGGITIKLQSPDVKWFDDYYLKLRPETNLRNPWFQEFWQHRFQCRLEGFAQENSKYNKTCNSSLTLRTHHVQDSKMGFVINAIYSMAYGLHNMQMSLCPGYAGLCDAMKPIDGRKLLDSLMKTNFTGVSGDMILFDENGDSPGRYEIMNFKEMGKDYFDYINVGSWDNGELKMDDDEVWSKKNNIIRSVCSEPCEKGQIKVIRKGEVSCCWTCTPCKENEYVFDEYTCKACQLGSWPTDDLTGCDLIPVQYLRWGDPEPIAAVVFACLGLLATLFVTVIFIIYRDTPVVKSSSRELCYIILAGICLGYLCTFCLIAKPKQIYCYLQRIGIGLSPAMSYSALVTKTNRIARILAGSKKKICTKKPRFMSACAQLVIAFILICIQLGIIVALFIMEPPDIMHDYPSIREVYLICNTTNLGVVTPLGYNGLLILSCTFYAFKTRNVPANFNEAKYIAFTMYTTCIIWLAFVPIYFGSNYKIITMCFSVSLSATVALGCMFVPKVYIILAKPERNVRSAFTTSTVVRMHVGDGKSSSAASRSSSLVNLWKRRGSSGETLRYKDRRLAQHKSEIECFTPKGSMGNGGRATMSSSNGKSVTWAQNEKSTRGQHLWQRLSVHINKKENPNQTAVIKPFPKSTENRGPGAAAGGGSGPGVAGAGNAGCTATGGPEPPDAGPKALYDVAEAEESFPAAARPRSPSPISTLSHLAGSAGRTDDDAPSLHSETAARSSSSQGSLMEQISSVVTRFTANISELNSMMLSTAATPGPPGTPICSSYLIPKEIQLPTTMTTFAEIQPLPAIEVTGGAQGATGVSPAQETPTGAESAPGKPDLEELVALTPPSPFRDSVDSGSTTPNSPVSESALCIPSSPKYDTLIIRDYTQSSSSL

O=C(Nc1cccc(Cl)c1)c1cccc(Oc2cccnc2)c1 [Compound 3]
fold less potent than 2 ([1]; mGlu5 potency vs 2): more than 20 fold

O=C(Nc1ccncn1)c1cccc(Oc2cccnc2)c1 [Compound 11]
mGlu5 pIC50 (± SEM) [1]: < 5.0 ^c | IC50 [1]: > 10 µM

Cc1nsc(NC(=O)c2cccc(Oc3cccnc3)c2)n1 [Compound 19]
mGlu5 pIC50 (± SEM) [1]: < 4.5 | IC50 [1]: > 30 µM

O=C(Nc1nc(C(F)(F)F)cs1)c1cccc(Oc2cccnc2)c1 [Compound 20]
mGlu5 pIC50 (± SEM) [1]: < 4.5 | IC50 [1]: > 30 µM

Cc1csc(NC(=O)c2cc(F)cc(Oc3cncnc3)c2)n1 [Compound 24]
responses in radioligand binding panel of 68 targets [2]: no significant responses | inhibition of marble burying [3]: Statistically significant inhibition | clearance in rats [4]: moderate to high clearance

CCCc1csc(NC(=O)c2cc(F)cc(Oc3cncnc3)c2)n1 [Compound 33]
fold loss of potency compared to 24 ([1]; mGlu5 potency vs 24): 10 fold

CCCc1csc(NC(=O)c2cc(Cl)cc(Oc3cncnc3)c2)n1 [Compound 38]
fold loss of potency compared to 25 ([1]; mGlu5 potency vs 25): 7 fold

Cc1ncc(Oc2cc(Cl)cc(C(=O)Nc3ccc(F)cn3)c2)cn1 [Compound 75]
fold loss of potency vs. 28 ([1]; mGlu5 potency vs 28): > 100 fold

Cc1cccc(NC(=O)c2cc(Cl)cc(Oc3cnc(C)nc3)c2)n1 [Compound 76]
fold decrease in potency vs. 66 ([1]; mGlu5 potency vs 66): 5 fold

Cc1cccc(C#Cc2ccccc2)n1 [MPEP]
efficacy in marble burying model [5]: effective

CN1CC(=O)NC1=NC(=O)Nc1cccc(Cl)c1 [fenobam]
efficacy in marble burying model [5]: effective
